Reference: PMC12211128, “Safety, tolerability, pharmacokinetic and pharmacodynamic effects of the muscarinic M1 positive allosteric modulator VU0467319 for Alzheimer’s disease: a single ascending-dose study in healthy participants” (Alzheimer's Research & Therapy, 2025)
Marks after values point to notes of the source that are not given here.

Tested on: healthy participants
Test: 12-lead ECG / QTcF and concentration/QT analysis
Assay type: in vivo, human
Conditions: for QTcF: mean (SD)
Experimental: Safety and tolerability were assessed throughout the study via treatment emergent adverse event (TEAE) monitoring, vital signs (blood pressure, pulse rate, respiration rate, oral temperature), physical examinations, 12-lead ECGs, and clinical laboratory parameters including complete blood count (CBC), coagulation, hematology, clinical chemistry assessments, and urinalysis. Safety laboratory tests were drawn at pre-dose and at 5, 24, 36 and 144-hours post-dose for 60–400 mg Cohorts; and at 24, 48, 72 and 144-hours post-dose for the 600 mg and Food Effect Cohort. ECG assessments were conducted at pre-dose and at 1, 2, 3, 5, 9, 24, 36 and 144-hours post-dose for 60–400 mg Cohorts; and at 2, 3, 5, 9, 24, 36, 72 and 144-hours post-dose for the 600 mg and Food Effect Cohort. All adverse events (AEs) were assessed by the investigator for severity and relationship to study medication or study procedures.
All AEs were coded using the Medical Dictionary for Regulatory Activities (MedDRA) version 22.0. All AEs were listed, and the emergence of TEAEs were categorized by body system affected and analyzed to determine whether they were related to treatment. Analysis of TEAEs for VU319 vs. Placebo were completed using Fisher’s Exact Test. Assessment of the grade of toxicity or relation to the study drug for each adverse event was determined by the Investigator. Changes in vital signs, physical examination, and laboratory tests were collected. Changes in vital signs from pre-dose to 48 h post-dose were placed into 10-time bins and assessed using mixed-measures ANOVA with the time bins as the within-subjects factor and dose as the between-subjects factor. To assess changes is QT analyses with respect to VU319 concentration, we calculated the maximal change in QTcF from baseline for each participant. We assessed the relationship between these maximal changes from baseline with the participant’s Cmax using Pearson correlations. Outlier QTcF values (> 450 ms) were also assessed against PK concentrations to examine it there was any relationship using Pearson correlations. Analyses of safety data was completed by SAS version 9.4.

SMILES: Cn1cc2c(-c3cc(F)c(CN4Cc5ncccc5C4=O)c(F)c3)cccc2n1 [VU319]
- QTcF (Food effect study, 120 mg Fasted, +2 hour): 405.0 (22.7)
- QTcF (Food effect study, 120 mg Fasted, +3 hour): 405.9 (19.13)
- QTcF (Food effect study, 120 mg Fasted, +5 hour): 406.4 (18.05)
- QTcF (Food effect study, 120 mg Fasted, +9 hour): 405.5 (14.4)
- QTcF (Food effect study, 120 mg Fasted, +24 hour): 401.2 (19.21)
- QTcF (Food effect study, 120 mg Fasted, +36 hour): 405.2 (23.74)
- QTcF (Food effect study, 120 mg Fasted, +72 hour): 403.2 (16.39)
- QTcF (Food effect study, 120 mg Fasted, +144 hour): 405.1 (19.72)
- QTcF (Food effect study, 120 mg Fasted, Baseline): 408.9 (20.1)
- QTcF (Food effect study, 120 mg Fed, +2 hour): 399.2 (19.09)
- QTcF (Food effect study, 120 mg Fed, +3 hour): 402.3 (24.08)
- QTcF (Food effect study, 120 mg Fed, +5 hour): 405.0 (16.01)
- QTcF (Food effect study, 120 mg Fed, +9 hour): 402.5 (19.51)
- QTcF (Food effect study, 120 mg Fed, +24 hour): 403.0 (16.89)
- QTcF (Food effect study, 120 mg Fed, +36 hour): 399.5 (21.91)
- QTcF (Food effect study, 120 mg Fed, +72 hour, n = 9, in ms): 402.7 (17.38)^#
- QTcF (Food effect study, 120 mg Fed, +144 hour): 403.6 (24.86)
- QTcF (Food effect study, 120 mg Fed, Baseline): 406.7 (21.7)
- QT intervals, effect of dose (SAD study): no significant dose-by-time interactions or main effects of dose group
- QTcF (SAD study, 60 mg, +1 hour): 411.0 (11.82)
- QTcF (SAD study, 60 mg, +2 hour): 414.8 (18.13)
- QTcF (SAD study, 60 mg, +3 hour): 412.8 (23.01)
- QTcF (SAD study, 60 mg, +5 hour): 417.2 (19.47)
- QTcF (SAD study, 60 mg, +9 hour): 411.3 (21.31)
- QTcF (SAD study, 60 mg, +24 hour): 408.7 (8.52)
- QTcF (SAD study, 60 mg, +36 hour, n = 5): 410.6 (10.5)*
- QTcF (SAD study, 60 mg, +144 hour): 415.5 (7.66)
- QTcF (SAD study, 60 mg, Baseline): 418.0 (17.1)
- QTcF (SAD study, 120 mg, +1 hour): 409.7 (15.34)
- QTcF (SAD study, 120 mg, +2 hour): 407.0 (21.02)
- QTcF (SAD study, 120 mg, +3 hour): 412.7 (20.02)
- QTcF (SAD study, 120 mg, +5 hour): 406.8 (15.5)
- QTcF (SAD study, 120 mg, +9 hour): 409.2 (16.68)
- QTcF (SAD study, 120 mg, +24 hour): 408.3 (12.64)
- QTcF (SAD study, 120 mg, +36 hour): 408.0 (18.17)
- QTcF (SAD study, 120 mg, +144 hour): 406.7 (17.95)
- QTcF (SAD study, 120 mg, Baseline): 406.0 (12.23)
- QTcF (SAD study, 240 mg, +1 hour): 422.7 (22.05)
- QTcF (SAD study, 240 mg, +2 hour): 415.5 (28.46)
- QTcF (SAD study, 240 mg, +3 hour): 421.7 (19.48)
- QTcF (SAD study, 240 mg, +5 hour): 414.8 (24.28)
- QTcF (SAD study, 240 mg, +9 hour): 421.0 (15.03)
- QTcF (SAD study, 240 mg, +24 hour): 415.2 (16.22)
- QTcF (SAD study, 240 mg, +36 hour): 418.2 (24.29)
- QTcF (SAD study, 240 mg, +144 hour): 422.8 (12.32)
- QTcF (SAD study, 240 mg, Baseline): 426.0 (33.22)
- QTcF (SAD study, 400 mg, +1 hour): 405.3 (24.45)
- QTcF (SAD study, 400 mg, +2 hour): 405.0 (26.62)
- QTcF (SAD study, 400 mg, +3 hour): 405.3 (25.65)
- QTcF (SAD study, 400 mg, +5 hour): 405.2 (27.72)
- QTcF (SAD study, 400 mg, +9 hour): 400.7 (23.41)
- QTcF (SAD study, 400 mg, +24 hour): 400.7 (17.13)
- QTcF (SAD study, 400 mg, +36 hour): 404.5 (20.16)
- QTcF (SAD study, 400 mg, +144 hour): 410.5 (10.21)
- QTcF (SAD study, 400 mg, Baseline): 401.8 (24.13)
- QTcF (SAD study, 600 mg, +2 hour): 419.7 (27.65)
- QTcF (SAD study, 600 mg, +3 hour): 419.5 (31.48)
- QTcF (SAD study, 600 mg, +5 hour): 413.8 (23.37)
- QTcF (SAD study, 600 mg, +9 hour): 413.8 (26.54)
- QTcF (SAD study, 600 mg, +24 hour): 408.0 (17.38)
- QTcF (SAD study, 600 mg, +36 hour): 418.2 (24.79)
- QTcF (SAD study, 600 mg, +72 hour): 413.3 (19.22)
- QTcF (SAD study, 600 mg, +144 hour): 415.7 (23.99)
- QTcF (SAD study, 600 mg, Baseline): 416.0 (25.35)
- relationship between change in QTcF from baseline and Cmax (SAD study, p > 0.6): did not show a significant relationship
- relationship between change in QTcF from baseline and Cmax (food effect study, Fasted p > 0.4, Fed p > 0.5): did not show a significant relationship
